Source: PubChem BioAssay AID1963845 (Molecular Pharmacology Branch, DTP, NCI, 2024)

Tested on: 429239-143-T-J1-PDC complex spheroid viability
Assay: Anticancer human tumor 429239-143-T-J1-PDC patient-derived small cell lung carcinoma cell line growth inhibition [POLQ]
Settings: for IC50: curve of first compound; for viability, T/C: stronger effect = lower value
How it was run: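 Patient-derived tumour cells were co-cultured with HUVEC and mesenchymal stem cells as multicellular spheroids at 37 °C. They were treated with POLQ inhibitors (novobiocin, ART-558, RP6685) alone or combined with other agents. Top concentrations were at or near clinical Cmax (otherwise 10 microM; SN-38 at 1 microM), decreasing in half-log steps.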

[1] = second compound 0.0316 µM, first compound 0.0316 µM
[2] = second compound 0.0316 µM, first compound 0.1 µM
[3] = second compound 0.0316 µM, first compound 0.316 µM
[4] = second compound 0.0316 µM, first compound 1 µM
[5] = second compound 0.1 µM, first compound 0.0316 µM
[6] = second compound 0.1 µM, first compound 0.1 µM
[7] = second compound 0.1 µM, first compound 0.316 µM
[8] = second compound 0.1 µM, first compound 1 µM
[9] = second compound 0.316 µM, first compound 0.0316 µM
[10] = second compound 0.316 µM, first compound 0.1 µM
[11] = second compound 0.316 µM, first compound 0.316 µM
[12] = second compound 0.316 µM, first compound 1 µM
[13] = second compound 1 µM, first compound 0.0316 µM
[14] = second compound 1 µM, first compound 0.1 µM
[15] = second compound 1 µM, first compound 0.316 µM
[16] = second compound 1 µM, first compound 1 µM
[17] = second compound 3.16 µM, first compound 0.0316 µM
[18] = second compound 3.16 µM, first compound 0.1 µM
[19] = second compound 3.16 µM, first compound 0.316 µM
[20] = second compound 3.16 µM, first compound 1 µM
[21] = second compound 10 µM, first compound 0.0316 µM
[22] = second compound 10 µM, first compound 0.1 µM
[23] = second compound 10 µM, first compound 0.316 µM
[24] = second compound 10 µM, first compound 1 µM
[25] = second compound 0.0316 µM, first compound 0.00316 µM
[26] = second compound 0.0316 µM, first compound 0.01 µM
[27] = second compound 0.1 µM, first compound 0.00316 µM
[28] = second compound 0.1 µM, first compound 0.01 µM
[29] = second compound 0.316 µM, first compound 0.00316 µM
[30] = second compound 0.316 µM, first compound 0.01 µM
[31] = second compound 1 µM, first compound 0.00316 µM
[32] = second compound 1 µM, first compound 0.01 µM
[33] = second compound 3.16 µM, first compound 0.00316 µM
[34] = second compound 3.16 µM, first compound 0.01 µM
[35] = second compound 10 µM, first compound 0.00316 µM
[36] = second compound 10 µM, first compound 0.01 µM
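Note: luminescence signal used as surrogate measure of viable cells; spheroids exposed to compounds for seven days before readout.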
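Throughout, for viability, T/C: 100% = DMSO vehicle control viability as luminescence relative to vehicle.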

Compound: COc1cccc2c1C(=O)c1c(O)c3c(c(O)c1C2=O)CC(O)(C(=O)CO)CC3OC1CC(N)C(O)C(C)O1 (stereo unspecified) + Nc1ccc(C#CCN(C(=O)Cc2ncc(C(F)(F)F)cc2C(F)(F)F)c2ccc(F)cc2)nn1
- IC50 (second compound 0.0316 µM): 75.7 nM
- IC50 (second compound 0.1 µM): 81.6 nM
- IC50 (second compound 0.316 µM): 109 nM
- IC50 (second compound 1 µM): 73.9 nM
- IC50 (second compound 3.16 µM): 70 nM
- IC50 (second compound 10 µM): 67.9 nM
- viability, T/C [1]: 85.2%
- viability, T/C [2]: 38.8%
- viability, T/C [3]: 5.33%
- viability, T/C [4]: 1.05%
- viability, T/C (second compound 0.0316 µM, first compound 3.16 µM): 0.09%
- viability, T/C (second compound 0.0316 µM, first compound 10 µM): 0.32%
- viability, T/C [5]: 83.5%
- viability, T/C [6]: 42.8%
- viability, T/C [7]: 7.41%
- viability, T/C [8]: 0.82%
- viability, T/C (second compound 0.1 µM, first compound 3.16 µM): 0.06%
- viability, T/C (second compound 0.1 µM, first compound 10 µM): 0.05%
- viability, T/C [9]: 87.3%
- viability, T/C [10]: 53.6%
- viability, T/C [11]: 6.68%
- viability, T/C [12]: 0.74%
- viability, T/C (second compound 0.316 µM, first compound 3.16 µM): 0.05%
- viability, T/C (second compound 0.316 µM, first compound 10 µM): 0.19%
- viability, T/C [13]: 83.1%
- viability, T/C [14]: 38.2%
- viability, T/C [15]: 5.31%
- viability, T/C [16]: 0.69%
- viability, T/C (second compound 1 µM, first compound 3.16 µM): 0.1%
- viability, T/C (second compound 1 µM, first compound 10 µM): 0.83%
- viability, T/C [17]: 83.9%
- viability, T/C [18]: 34.8%
- viability, T/C [19]: 5.88%
- viability, T/C [20]: 0.94%
- viability, T/C (second compound 3.16 µM, first compound 3.16 µM): 1.4%
- viability, T/C (second compound 3.16 µM, first compound 10 µM): 0.16%
- viability, T/C [21]: 80.7%
- viability, T/C [22]: 34.4%
- viability, T/C [23]: 5.07%
- viability, T/C [24]: 0.55%
- viability, T/C (second compound 10 µM, first compound 3.16 µM): 1.2%
- viability, T/C (second compound 10 µM, first compound 10 µM): 0.18%

Compound: C=CCn1c(=O)c2cnc(Nc3ccc(N4CCN(C)CC4)cc3)nc2n1-c1cccc(C(C)(C)O)n1 + Cc1cccc(N(C)C(=O)C2C(O)CCN2c2nc(C)cc(C(F)(F)F)c2C#N)c1
- IC50 (second compound 0.0316 µM): 644 nM
- IC50 (second compound 0.1 µM): 637 nM
- IC50 (second compound 0.316 µM): 593 nM
- IC50 (second compound 1 µM): 587 nM
- IC50 (second compound 3.16 µM): 609 nM
- IC50 (second compound 10 µM): 642 nM
- viability, T/C [25]: 106%
- viability, T/C [26]: 110%
- viability, T/C [1]: 103%
- viability, T/C [2]: 95.1%
- viability, T/C [3]: 103%
- viability, T/C [4]: 17%
- viability, T/C [27]: 105%
- viability, T/C [28]: 105%
- viability, T/C [5]: 97.5%
- viability, T/C [6]: 102%
- viability, T/C [7]: 103%
- viability, T/C [8]: 16.1%
- viability, T/C [29]: 109%
- viability, T/C [30]: 106%
- viability, T/C [9]: 106%
- viability, T/C [10]: 116%
- viability, T/C [11]: 91.1%
- viability, T/C [12]: 16.1%
- viability, T/C [31]: 107%
- viability, T/C [32]: 100%
- viability, T/C [13]: 103%
- viability, T/C [14]: 111%
- viability, T/C [15]: 89.6%
- viability, T/C [16]: 16%
- viability, T/C [33]: 108%
- viability, T/C [34]: 102%
- viability, T/C [17]: 97.7%
- viability, T/C [18]: 111%
- viability, T/C [19]: 93.3%
- viability, T/C [20]: 16.7%
- viability, T/C [35]: 118%
- viability, T/C [36]: 113%
- viability, T/C [21]: 113%
- viability, T/C [22]: 100%
- viability, T/C [23]: 104%
- viability, T/C [24]: 16.6%

Compound: CC[C@@]1(O)C(=O)OCc2c1cc1n(c2=O)Cc2cc3c(CN(C)C)c(O)ccc3nc2-1 + COC1C(OC(N)=O)C(O)C(Oc2ccc3c(O)c(NC(=O)c4ccc(O)c(CC=C(C)C)c4)c(=O)oc3c2C)OC1(C)C
- IC50 (second compound 0.0316 µM): 13.5 nM
- IC50 (second compound 0.1 µM): 16 nM
- IC50 (second compound 0.316 µM): 15 nM
- IC50 (second compound 1 µM): 16.6 nM
- IC50 (second compound 3.16 µM): 13.6 nM
- IC50 (second compound 10 µM): 16.2 nM
- viability, T/C (second compound 0.0316 µM, first compound 0.000316 µM): 102%
- viability, T/C (second compound 0.0316 µM, first compound 0.001 µM): 101%
- viability, T/C [25]: 86.5%
- viability, T/C [26]: 63%
- viability, T/C [1]: 18.6%
- viability, T/C [2]: 19.8%
- viability, T/C (second compound 0.1 µM, first compound 0.000316 µM): 110%
- viability, T/C (second compound 0.1 µM, first compound 0.001 µM): 108%
- viability, T/C [27]: 88.7%
- viability, T/C [28]: 72.9%
- viability, T/C [5]: 16.8%
- viability, T/C [6]: 19%
- viability, T/C (second compound 0.316 µM, first compound 0.000316 µM): 98.4%
- viability, T/C (second compound 0.316 µM, first compound 0.001 µM): 97.4%
- viability, T/C [29]: 101%
- viability, T/C [30]: 66.3%
- viability, T/C [9]: 20.4%
- viability, T/C [10]: 19.7%
- viability, T/C (second compound 1 µM, first compound 0.000316 µM): 93.6%
- viability, T/C (second compound 1 µM, first compound 0.001 µM): 98%
- viability, T/C [31]: 83.7%
- viability, T/C [32]: 73.8%
- viability, T/C [13]: 17.7%
- viability, T/C [14]: 21.4%
- viability, T/C (second compound 3.16 µM, first compound 0.000316 µM): 108%
- viability, T/C (second compound 3.16 µM, first compound 0.001 µM): 93.4%
- viability, T/C [33]: 99.7%
- viability, T/C [34]: 61.4%
- viability, T/C [17]: 18.5%
- viability, T/C [18]: 18.4%
- viability, T/C (second compound 10 µM, first compound 0.000316 µM): 87.8%
- viability, T/C (second compound 10 µM, first compound 0.001 µM): 103%
- viability, T/C [35]: 91.1%
- viability, T/C [36]: 71.1%
- viability, T/C [21]: 20.8%
- viability, T/C [22]: 17.4%
